We go through 4 molecules from article PMC7994712 (Nature Communications, 2021).

pIC50: −log10 of the molar value. Entries after “also recorded” stand apart in the source; their conditions may differ. Like-named read-outs stand apart in the source and are kept apart here. Where a SMILES comes first, the peptide text is derived from it. Bridges are numbered along the chain shown (N, C = ends).

For orientation: pIC50 means the negative decadic logarithm of the IC50, by convention in mol/L.

Data set [1] concerns serum of mice with TNBS-induced acute colitis. The data set is described as follows: Serum cytokines in TNBS-induced acute colitis. The data set is classed as in vivo, mouse. The source says: In both TNBS-induced acute and chronic colitis, animals were daily monitored for the appearance of diarrhea, body weight loss and survival. At different time points, colitis signs were scored in base of stool consistency and rectal bleeding by two blinded observers using the following scale: 0 = normal stool appearance, 1 = slight decrease in stool consistency, 2 = moderate decrease in stool consistency, 3 = moderate decrease in stool consistency and presence of blood in stools, 4 = severe watery diarrhea and moderate/severe bleeding in stools. […] After macroscopic examination, various colonic segments were immediately frozen in liquid nitrogen for protein extraction and cytokine determination or for histopathological analysis as described below. In some animals, MLNs were isolated 10 days after TNBS injection and assayed for proliferation, cytokine production and flow cytometric analysis as described below. Moreover, sera were collected by cardiac puncture at day 10 after TNBS injection and the levels of cytokines and anti-TNBS IgG were determined by specific ELISAs as described below. […]
Supplementary Table 3. Serum cytokines in TNBS-in du ced acu t e col i ti s.
Treatments were administered in a curative regime as described in Figure 4 and sera were collected 10
days after TNBS infusion. n=8 mice/group. Data are mean ± SEM. […]

Data set [2] relates to colonic mucosa of mice with TNBS-induced acute colitis. The data set is described as follows: Cytokines in colonic mucosa, TNBS-induced acute colitis. The data set is classed as in vivo, mouse. The settings on record: Figure 5c, mean of 8 mice. How it is done:
Control mice received 50% ethanol alone.
Protein extracts were isolated by homogenisation of colonic segments (50 mg tissue/mL) in 50 mM Tris-HCl, pH 7.4, with 0.5 mM DTT, and 10 μg/mL of a cocktail of proteinase inhibitors (all from Sigma-Aldrich). Samples were centrifuged at 30,000×g for 20 min and stored at –80 °C until cytokine determination.

Data set [3] concerns the target T1, SSTR2 (Homo sapiens, UniProt P30874).
T1 construct: host or cells: CHO-K1
Put plainly: Radio-ligand binding assay, SSTR2. How it is done:
(§1) Graphical and tabular representation of the percentage inhibition of specific binding, as IC50 (nM) binding values for the analogues against the five SSTR1-SSTR5 is represented in Supplementary Fig. 1b and Supplementary Table 1. […] IC50 values were determined by a non-linear, least squares regression analysis using Prism 9 (GraphPad Software, USA), using the Dose-response inhibition (three-parameters) model. […]
(§2) (SSTR1-SSTR5), using a Radio-ligand Binding Assay (Supplementary Figure 1b). Cells were incubated in HEPES buffer pH 7.4 with the new analogues of Cortistatin at 10 different concentrations in a range […]
(§3) specifically bound (performed at Eurofins Panlabs, Inc.). The radioactivity obtained in the absence of SST14 is considered as total binding and that obtained in the presence of 1 µM of SST14 is considered as nonspecific binding. Specific binding was considered as the difference between total and nonspecific.
(§4) Biochemical assay results are presented as the percent inhibition of specific bindin g (% inhib ition) as a […]
(§5) part of each binding assay with the five (SSTR1 -SS T R5 ) . I C50 values were determined by a non-linear, least squares regression analysis using Prism 9 (GraphPad Software, USA), using the Dose -response inhibit ion (t hree-parameters) model.

Another data set addresses T2, SSTR1 (Homo sapiens, UniProt P30872).
T2 construct: host or cells: CHO-K1
The data set is described as follows: Radio-ligand binding assay, SSTR1. The procedure:
as §1, §2, §3, §4, §5

For data set [4], the target named is T3, SSTR3 (Homo sapiens, UniProt P32745).
T3 construct: host or cells: CHO-K1
T3 sequence (P32745 whole entry): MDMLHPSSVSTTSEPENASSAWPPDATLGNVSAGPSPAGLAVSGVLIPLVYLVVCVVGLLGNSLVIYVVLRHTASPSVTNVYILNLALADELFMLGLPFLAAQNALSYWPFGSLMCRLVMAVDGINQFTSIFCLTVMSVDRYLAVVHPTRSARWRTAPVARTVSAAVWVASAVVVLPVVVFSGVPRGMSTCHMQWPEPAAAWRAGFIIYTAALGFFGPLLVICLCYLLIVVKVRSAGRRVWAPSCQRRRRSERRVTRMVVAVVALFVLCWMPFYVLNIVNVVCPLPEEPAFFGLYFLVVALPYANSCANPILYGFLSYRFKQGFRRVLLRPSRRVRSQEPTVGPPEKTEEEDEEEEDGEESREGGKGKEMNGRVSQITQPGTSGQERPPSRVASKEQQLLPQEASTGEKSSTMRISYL
Put plainly: Radio-ligand binding assay, SSTR3. How it is done: as §1, §2, §3, §4, §5

Data set [5] concerns anti-CD3-activated mouse spleen cells. Put plainly: Proliferation and Th1-type cytokines of anti-CD3-activated spleen cells. The data set is classed as cell-based. The settings on record: 100 nM (Supplementary Fig. 2d). The procedure: Spleen cells were isolated from C57Bl/6J mice (male, 8-weeks-old, Charles River) by mechanical cell dissociation, filtration using a nylon filter and red cell lysing. The spleen cells were incubated in complete DMEM medium at a density of 10^6 cells/mL for 2 h. Nonadherent cells (consisting in 80% of T cells) were cultured in complete DMEM medium and stimulated with anti-mouse CD3e antibody (2 μg/mL, clone 145-2C11, BD Pharmingen, cat #: 553058) in the presence of different Cortistatin analogues (100 nM). After 48 h, culture supernatants were collected and the levels of cytokines (IFNγ and IL2) were determined by a specific sandwich ELISA by using capture/biotinylated detection monoclonal antibodies from BD Pharmingen (for IFNγ: capture antibody clone XMG1.2, cat # 554408; biotin antibody clone R4-6A2, cat # 551506; for IL2: capture antibody clone S4B6, cat # 554375; biotin antibody clone JES6-5H4, cat # 554426) according to the manufacturer’s recommendations. To determine the effect of different analogues of Cortistatin in proliferation, the cells were cultured for 72 h, 0.5 μCi (0.0185 MBq)/well of [^3H]-thymidine was added for the last 8 h of culture, harvested the membranes and [^3H]-thymidine incorporated was quantified by scintillation counting.

Data set [6] concerns the target T4, SSTR5 (Homo sapiens, UniProt P35346).
T4 construct: host or cells: CHO-K1
The data set is described as follows: Radio-ligand binding assay, SSTR5. The procedure: as §1, §2, §3, §4, §5

Data set [7] has as its system LPS-activated mouse Raw 264 macrophages. Put plainly: Inflammatory response of LPS-activated RAW 264 macrophages. The data set is classed as cell-based. The settings on record: 100 nM (Supplementary Fig. 2c). How it is done: Inflammatory response was assayed in vitro on the mouse macrophagic cell line RAW 264 macrophages and mouse primary peritoneal macrophages. RAW 264 cells (ATTC, TIB-71) were grown at 5 × 10^5 cells/mL in complete DMEM medium (DMEM supplemented with 100 U/mL penicillin/streptomycin, 2 mM L-glutamine, 50 μM 2-mercaptoethanol and 10% heat-inactivated fetal calf serum) until reaching a confluence of 80% and then incubated in the absence (used as baseline reference) or presence of LPS (1 μg/mL, from E. coli serotype 055: B5, Sigma). Cortistatin (mouse/rat CST-14, Bachem) and its synthesised analogues were added at a concentration of 100 nM at the beginning of culture. After 24 h of culture, supernatants were harvested. Levels of the inflammatory cytokines TNFα and IL6 were determined by a specific sandwich ELISA by using capture/biotinylated detection monoclonal antibodies from BD Pharmingen (for TNFα: capture antibody clone G281-2626, cat # 551225; biotin antibody clone MP6-XT3, cat # 554415; for IL6: capture antibody clone MP5-20F3, cat # 554398; biotin MP5-32C1, cat # 554402) according to the manufacturer’s recommendations. Nitric oxide content in culture supernatants was determined by quantifying nitrite levels using the Griess assay.

The nature of data set [8]: Aqueous solubility (observed on sample preparation). Particulars: aqueous buffer solution; observation in words. In kind it is physicochemical. The source says:
For instance, it is well known that substitution of L-Trp to D-Trp increases the population of the native β-turn and of and the analogue half-life in serum. […] For these reasons, in all the CST analogues, L-Trp was replaced by D-Trp in position 7 and Ser11 was replaced by Thr11 to stabilise the β-turn; and either Phe6 or Phe5 were replaced by Msa (analogues 2 and 4; Fig. 1c). In addition to these modifications, terminal residues were acylated as N-octanoyl amides (analogues 3 and 5). The reasoning behind this modification was to increase the hydrophobicity of the analogue and mimic a similar modification to that observed in ghrelin, a neuropeptide produced by endocrine cells in the digestive tract and that shares with CST the ability to interact with the growth hormone secretagogue receptor GHSR-1a[28].
We also characterised the conformational properties of analogues 2, 3 and 4. […] In these cases (Fig. 8a–c), the aromatic residues 5 and 10 align on one side of the molecule, whereas the side chain of residue 6 is located on the other side of the peptide plane. In this conformation, D-Trp7 is close to the pair of aromatic rings 5 and 10, due to the presence of weak NOEs involving the ring protons of D-Trp7 and the methyl protons of Msa5. […]

In data set [9] the target is T4, SSTR5. The arrangement: method as in earlier work. The settings on record: literature values marked *; ref 1 (supplementary references); cited from earlier work. The source says: (§6) The peptide backbone is shown in gold and the N- and C-terminus residues, as well as the disulfide bond are labelled. Representative aromatic clusters. All side chains are shown to facilitate structural analysis. Side chains participating in the interactions are specifically labelled. c Schematic representation of Cortistatin-14 sequence. […] 1-2. […] 3-1. […] 3-1. […] 3-1.

The target of data set [10] is T3, SSTR3. The arrangement: method as in earlier work. Particulars: literature values marked *; ref 1 (supplementary references); cited from earlier work.
From the text: as §6

In data set [11] the target is T1, SSTR2. The arrangement: method as in earlier work. Particulars: literature values marked *; ref 1 (supplementary references); cited from earlier work.
From the text: as §6

The target of a further data set is T5, SSTR4 (Homo sapiens, UniProt P31391).
T5 construct: host or cells: CHO-K1
T5 sequence (P31391 whole entry): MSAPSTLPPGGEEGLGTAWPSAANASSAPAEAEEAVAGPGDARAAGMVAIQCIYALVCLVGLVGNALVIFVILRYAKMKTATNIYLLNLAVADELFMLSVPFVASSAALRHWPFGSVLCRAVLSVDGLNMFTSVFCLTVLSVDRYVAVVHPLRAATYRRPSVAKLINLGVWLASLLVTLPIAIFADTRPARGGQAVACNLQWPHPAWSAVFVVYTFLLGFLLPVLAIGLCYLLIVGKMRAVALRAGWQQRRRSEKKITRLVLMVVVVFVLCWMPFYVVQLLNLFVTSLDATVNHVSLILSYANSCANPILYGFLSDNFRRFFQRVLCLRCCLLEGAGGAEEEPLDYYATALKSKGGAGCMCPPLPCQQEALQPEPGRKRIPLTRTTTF
The arrangement: method as in earlier work. The settings on record: literature values marked *; ref 1 (supplementary references); cited from earlier work.
From the text: as §6

The mark [12] stands for this setting: TNBS acute colitis, curative regime, sera 10 days after TNBS, mean ± SEM, n=8.
[13] abbreviates: acute colitis induced by TNBS, serum, mean of 8 mice.

T4 sequence (P35346 whole entry): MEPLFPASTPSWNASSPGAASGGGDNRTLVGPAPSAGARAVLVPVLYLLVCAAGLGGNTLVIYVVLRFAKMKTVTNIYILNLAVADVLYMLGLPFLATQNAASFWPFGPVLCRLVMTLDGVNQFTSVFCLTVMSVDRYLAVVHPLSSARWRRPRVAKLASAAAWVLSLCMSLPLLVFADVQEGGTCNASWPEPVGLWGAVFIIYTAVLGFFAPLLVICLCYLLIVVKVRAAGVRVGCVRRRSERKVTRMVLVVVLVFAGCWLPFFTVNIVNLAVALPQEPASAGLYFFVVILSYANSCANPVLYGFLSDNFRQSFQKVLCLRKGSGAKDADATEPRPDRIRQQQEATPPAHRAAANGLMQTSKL
T1 sequence (P30874 whole entry): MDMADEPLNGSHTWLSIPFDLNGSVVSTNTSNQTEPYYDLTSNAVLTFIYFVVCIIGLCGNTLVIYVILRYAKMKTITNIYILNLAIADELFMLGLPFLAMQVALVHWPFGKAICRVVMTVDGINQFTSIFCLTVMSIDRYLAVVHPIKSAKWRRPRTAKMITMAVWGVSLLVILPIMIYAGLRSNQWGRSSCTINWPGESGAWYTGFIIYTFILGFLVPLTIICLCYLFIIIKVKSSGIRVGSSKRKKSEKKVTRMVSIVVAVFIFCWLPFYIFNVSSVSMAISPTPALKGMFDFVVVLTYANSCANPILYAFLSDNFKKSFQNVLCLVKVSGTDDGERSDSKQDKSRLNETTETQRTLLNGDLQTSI
T2 sequence (P30872 whole entry): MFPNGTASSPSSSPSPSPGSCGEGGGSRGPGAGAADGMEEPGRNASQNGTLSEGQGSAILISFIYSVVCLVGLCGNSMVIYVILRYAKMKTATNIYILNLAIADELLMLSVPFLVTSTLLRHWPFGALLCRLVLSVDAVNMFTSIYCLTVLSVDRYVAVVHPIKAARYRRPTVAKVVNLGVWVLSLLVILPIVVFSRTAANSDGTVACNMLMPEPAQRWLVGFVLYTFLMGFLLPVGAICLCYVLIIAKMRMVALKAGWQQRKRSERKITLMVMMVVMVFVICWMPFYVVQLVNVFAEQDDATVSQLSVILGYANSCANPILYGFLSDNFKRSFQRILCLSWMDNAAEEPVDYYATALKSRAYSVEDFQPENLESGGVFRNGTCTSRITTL

As to `Nc1ccc(O)c(C(=O)O)c1` [Mesalazine, 5-aminosalycilic acid], the “Serum IL6” value in [1] (setting [12]) came to 773 ± 46 pg/mL. Moreover, the “Serum IL17” value in data set [1] (setting [12]) was 233 ± 15 pg/mL. The “IL6, serum level” value in data set [1] (setting [13]) was 0.77 ng/mL. Further, the “TNFa, serum level” value in data set [1] (setting [13]) came out at 0.78 ng/mL. For the same molecule, the “IL17, serum level” value in data set [1] (acute colitis induced by TNBS, serum, mouse 1 of the group) is given as 0.024 ng/mL; in data set [1] (acute colitis induced by TNBS, serum, mouse 2 of the group), 0.024 ng/mL; in data set [1] (acute colitis induced by TNBS, serum, mouse 3 of the group) it was 0.029 ng/mL; in data set [1] (acute colitis induced by TNBS, serum, mouse 4 of the group), 0.017 ng/mL; in data set [1] (acute colitis induced by TNBS, serum, mouse 5 of the group) it was 0.019 ng/mL; in data set [1] (acute colitis induced by TNBS, serum, mouse 6 of the group) it was 0.025 ng/mL. Also, the “IL17, serum level” value in [1] (acute colitis induced by TNBS, serum, mouse 7 of the group) worked out at 0.021 ng/mL; in [1] (acute colitis induced by TNBS, serum, mouse 8 of the group), 0.028 ng/mL. Moreover, the “IL10 (ng/g colon)” value in data set [2] was determined as 3.75 ng/g colon.

On to `Cc1cc(C)c(C[C@@H]2NC(=O)[C@H](CC(N)=O)NC(=O)[C@H](CCCCN)NC(=O)[C@@H](NC(=O)[C@@H]3CCCN3)CSSC[C@@H](C(=O)N[C@@H](CCCCN)C(=O)O)NC(=O)[C@H](CO)NC(=O)[C@H]([C@@H](C)O)NC(=O)[C@H](Cc3ccccc3)NC(=O)[C@H]([C@@H](C)O)NC(=O)[C@H](CCCCN)NC(=O)[C@@H](Cc3c[nH]c4ccccc34)NC(=O)[C@H](Cc3ccccc3)NC2=O)c(C)c1` [A4, [L-Msa5_D-Trp7_L-Thr11]-CST 14], for which the pIC50 was 8.01 on SSTR2 [3], 7.83 at SSTR1, 8.74 on SSTR3 [4] and 8.40 at SSTR5 [6]. The “effect on the inflammatory responses in activated lymphocytes” value in data set [5] was “no significant effects”. Also, in data set [7], the “effect on the inflammatory responses in activated macrophages” value is listed as “no significant effects”.

As for `CCCCCCCC(=O)N1CCC[C@H]1C(=O)N[C@H]1CSSC[C@@H](C(=O)O)NC(=O)[C@H](CO)NC(=O)[C@H]([C@@H](C)O)NC(=O)[C@H](Cc2ccccc2)NC(=O)[C@H]([C@@H](C)O)NC(=O)[C@H](CCCCN)NC(=O)[C@@H](Cc2c[nH]c3ccccc23)NC(=O)[C@H](Cc2ccccc2)NC(=O)[C@H](Cc2c(C)cc(C)cc2C)NC(=O)[C@H](CC(N)=O)NC(=O)[C@H](CCCCN)NC1=O` [analogue 6], in data set [8], the aqueous solubility result is listed as “reduced its aqueous solubility; also recorded: significant impact on the solubility of the sample”.

`C[C@@H](O)[C@@H]1NC(=O)[C@H](CCCCN)NC(=O)[C@H](Cc2c[nH]c3ccccc23)NC(=O)[C@H](Cc2ccccc2)NC(=O)[C@H](Cc2ccccc2)NC(=O)[C@H](CC(N)=O)NC(=O)[C@H](CCCCN)NC(=O)[C@@H](NC(=O)[C@@H]2CCCN2)CSSC[C@@H](C(=O)N[C@@H](CCCCN)C(=O)O)NC(=O)[C@H](CO)NC(=O)[C@H](CO)NC(=O)[C@H](Cc2ccccc2)NC1=O` [CST] (H-PCKNFFWKTFSSCK-OH; disulfide 2-13): the pIC50 at SSTR5 [9] is 9.52; at SSTR3 [10], 9.52; on SSTR2 [11] it was 10.05; at SSTR4 it was 9.70.
